Calls of active or inactive are those of the source. The rule behind the calls is not given here.
Legend:
[1] = Selectivity index, ratio of CC50 for cytotoxicity against human Huh-5-2 cells carrying HCV subgenomic replicon assessed as decrease in intracellular ATP level to EC50 for antiviral activity against HCV GT-1b Con1 in human Huh-5-2 cells carrying HCV subgenomic replicon assessed as reduction of viral replication; assay type: toxicity, cell-based; details: read-out: Ratio CC50/EC50
Hepatitis C virus [2] = assay: Antiviral activity against HCV GT-1b Con1 in human Huh-5-2 cells carrying HCV subgenomic replicon assessed as reduction of viral replication measured after 72 hrs by Firefly luciferase reporter gene assay; assay type: functional, organism-based, Hepacivirus hominis; details: subtype 1b Con1, Huh-5-2, 72 h
[3] = Cytotoxicity against human Huh-5-2 cells carrying HCV subgenomic replicon assessed as decrease in intracellular ATP level measured after 72 hrs by Glo-max luminescence based assay; assay type: toxicity, cell-based
[4] = Metabolic stability in human S9 fraction assessed as half life at 10 mg/ml measured upto 120 mins in presence of NADP […] system by LC-MS/MS analysis; assay type: ADME, subcellular
[5] = Metabolic stability in human S9 fraction assessed as clearance at 10 mg/ml measured upto 120 mins in presence of NADP […] system by LC-MS/MS analysis; assay type: ADME, subcellular
Hepatitis C virus [6] = assay: Antiviral activity against HCV 3a S52 in human Huh7.5 cells carrying HCV subgenomic replicons assessed as inhibition of viral replication measured after 72 hrs by Firefly luciferase reporter gene assay; assay type: functional, organism-based, Hepacivirus hominis; details: subtype 3a S52, Huh7.5, 72 h
Hepatitis C virus [7] = assay: Antiviral activity against full length HCV GT-1a H77S.3 in human Huh-7-Lunet cells carrying HCV subgenomic replicon assessed as inhibition of viral replication measured after 72 hrs by Firefly luciferase reporter gene assay; assay type: functional, organism-based, Hepacivirus hominis; details: genotype 1a H77S.3, Huh-7, 72 h
Hepatitis C virus [8] = assay: Antiviral activity against HCV 2a JFH1 in human Huh-7 cells carrying HCV subgenomic replicon assessed as inhibition of viral replication measured after 72 hrs by Firefly luciferase reporter gene assay; assay type: functional, cell-based; details: 2a JFH1, Huh-7, 72 h
Hepatitis C virus [9] = assay: Antiviral activity against HCV 4a ED43 in human Huh7.5 cells carrying HCV subgenomic replicon assessed as inhibition of viral replication measured after 72 hrs by Firefly luciferase reporter gene assay; assay type: functional, organism-based, Hepacivirus hominis; details: subtype 4a ED43, Huh7.5, 72 h
Hepatitis C virus [10] = assay: Antiviral activity against HCV GT-1b Con1 in human Huh-5-2 cells carrying HCV subgenomic replicon assessed as drug resistance upto 100X EC50 and measured after 30 passages in presence of G418 by NGS analysis; assay type: functional, organism-based, Hepacivirus hominis; details: subtype 1b Con1, Huh-5-2
Hepatitis C virus [11] = assay: Antiviral activity against HCV GT-1b Con1 in human Huh-5-2 cells carrying HCV subgenomic replicon assessed as drug resistance upto 100X EC50 and measured after 15 weeks in presence of G418 by NGS analysis; assay type: functional, organism-based, Hepacivirus hominis; details: subtype 1b Con1, Huh-5-2
[12] = Selectivity index, ratio of EC50 for antiviral activity against HCV GT-1b Con1 in human Huh-5-2 cells carrying HCV subgenomic replicon assessed as drug resistance measured after 15weeks in presence of G418 by NGS analysis to EC50 for antiviral activity against HCV GT-1b Con1 in human Huh-5-2 cells carrying HCV subgenomic replicon assessed as drug resistance measured after 30 passages in presence of G418; assay type: functional, Hepatitis C virus subtype 1b
Hepatitis C virus [13] = assay: Antiviral activity against HCV GT-1b Con1 infected in human Huh-5-2 cells carrying HCV subgenomic replicon assessed as reduction of viral replication by RT-qPCR analysis; assay type: functional, organism-based, Hepacivirus hominis; details: subtype 1b Con1, Huh-5-2
Hepatitis C virus [14] = assay: Antiviral activity against HCV GT-1b Con1 infected in human Huh-5-2 cells carrying HCV subgenomic replicon assessed as reduction in NS5A protein level incubated at 3.3 to 30 pM by PI staining based indirect immunofluorescence assay; assay type: functional, organism-based; details: Hepacivirus hominis, subtype 1b Con1, dose 3.3-30 pM

COC(=O)N[C@H](C(=O)N1CCC[C@H]1C(=O)Nc1ccc(C#Cc2cccc(NC(=O)[C@@H]3CCCN3C(=O)[C@@H](NC(=O)OC)C(C)C)c2)cc1)C(C)C
selectivity ratio [1]: 231000 | EC50 (Hepatitis C virus [2]): 0.179 nM | CC50 at 72 h [3]: 41200 nM

COC(=O)N[C@@H](C(=O)N1CCC[C@H]1C(=O)Nc1cccc(C#Cc2cccc(NC(=O)[C@@H]3CCCN3C(=O)[C@H](NC(=O)OC)C(C)C)c2)c1)C(C)C
selectivity ratio [1]: > 891 | EC50 (Hepatitis C virus [2]): 1.12 nM | CC50 at 72 h [3]: > 1000 nM

COC(=O)N[C@@H](CCSC)C(=O)N1CCC[C@H]1C(=O)Nc1cccc(C#Cc2cccc(NC(=O)[C@@H]3CCCN3C(=O)[C@H](CCSC)NC(=O)OC)c2)c1
selectivity ratio [1]: > 7350 | EC50 (Hepatitis C virus [2]): 0.136 nM | CC50 at 72 h [3]: > 1000 nM

CCOC(=O)N[C@@H](CC(C)C)C(=O)N1CCC[C@H]1C(=O)Nc1cccc(C#Cc2cccc(NC(=O)[C@@H]3CCCN3C(=O)[C@H](CC(C)C)NC(=O)OCC)c2)c1
selectivity ratio [1]: 968 | EC50 (Hepatitis C virus [2]): 25 nM | CC50 at 72 h [3]: 24200 nM

COC(=O)N[C@H](CCSC)C(=O)N1CCC[C@H]1C(=O)Nc1cccc(C#Cc2cccc(NC(=O)[C@@H]3CCCN3C(=O)[C@@H](CCSC)NC(=O)OC)c2)c1
selectivity ratio [1]: > 1890 | EC50 (Hepatitis C virus [2]): 0.528 nM | CC50 at 72 h [3]: > 1000 nM

CCOC(=O)N[C@H](C(=O)N1CCC[C@H]1C(=O)Nc1cccc(C#Cc2cccc(NC(=O)[C@@H]3CCCN3C(=O)[C@@H](NC(=O)OCC)C(C)C)c2)c1)C(C)C
selectivity ratio [1]: > 8230 | EC50 (Hepatitis C virus [2]): 12.2 nM | CC50 at 72 h [3]: > 100000 nM

COC(=O)N[C@@H](C(=O)N1CCC[C@H]1C(=O)Nc1ccc(C#Cc2cccc(NC(=O)[C@@H]3CCCN3C(=O)[C@H](NC(=O)OC)c3ccccc3)c2)cc1)c1ccccc1
selectivity ratio [1]: > 995 | EC50 (Hepatitis C virus [2]): 1 nM | CC50 at 72 h [3]: > 1000 nM

CC(C)[C@H](NC(=O)OCc1ccccc1)C(=O)N1CCC[C@H]1C(=O)Nc1cccc(C#Cc2cccc(NC(=O)[C@@H]3CCCN3C(=O)[C@@H](NC(=O)OCc3ccccc3)C(C)C)c2)c1
EC50 (Hepatitis C virus [2]): 999 nM | CC50 at 72 h [3]: > 1000 nM

COC(=O)N[C@@H](C(=O)N1CCCC1C(=O)Nc1cccc(C#Cc2cccc(-c3cnc([C@@H]4CCCN4C(=O)[C@H](NC(=O)OC)c4ccccc4)[nH]3)c2)c1)c1ccccc1 (single isomer, unassigned)
selectivity ratio [1]: > 11000 | EC50 (Hepatitis C virus [2]): 0.0906 nM | CC50 at 72 h [3]: > 1000 nM | half-life at 10 mg/ml [4]: 73.6 min | microsomal CLint [5]: 9.4 µL/min/mg

COC(=O)N[C@H](C(=O)N1CCC[C@H]1c1ncc(-c2ccc(-c3ccc(-c4cnc([C@@H]5CCCN5C(=O)[C@@H](NC(=O)OC)C(C)C)[nH]4)cc3)cc2)[nH]1)C(C)C [DACLATASVIR]
EC50 (Hepatitis C virus [6]): 8.35 nM | EC50 (Hepatitis C virus [7]): 0.136 nM | EC50 (Hepatitis C virus [8]): 0.0578 nM | EC50 (Hepatitis C virus [9]): 0.0212 nM | EC50 (Hepatitis C virus [10]): 0.0257 nM | EC50 (Hepatitis C virus [11]): 3.39 nM | Ratio EC50 [12]: 132

CCSC[C@@H](NC(=O)OC)C(=O)N1CCC[C@H]1C(=O)Nc1cccc(C#Cc2cccc(NC(=O)[C@@H]3CCCN3C(=O)[C@@H](CSCC)NC(=O)OC)c2)c1
selectivity ratio [1]: 13000 | EC50 (Hepatitis C virus [2]): 0.86 nM | CC50 at 72 h [3]: 11200 nM

CCCCOC(=O)N[C@H](C(=O)N1CCC[C@H]1C(=O)Nc1cccc(C#Cc2cccc(NC(=O)[C@@H]3CCCN3C(=O)[C@@H](NC(=O)OCCCC)C(C)C)c2)c1)C(C)C
selectivity ratio [1]: > 173 | EC50 (Hepatitis C virus [2]): 577 nM | CC50 at 72 h [3]: > 100000 nM

CCCCOC(=O)N[C@@H](CC(C)C)C(=O)N1CCC[C@H]1C(=O)Nc1cccc(C#Cc2cccc(NC(=O)[C@@H]3CCCN3C(=O)[C@H](CC(C)C)NC(=O)OCCCC)c2)c1
EC50 (Hepatitis C virus [2]): > 1000 nM | CC50 at 72 h [3]: > 1000 nM

COC(=O)N[C@H](C(=O)N1CCC[C@H]1C(=O)Nc1cccc(C#Cc2cccc(NC(=O)[C@@H]3CCCN3C(=O)[C@@H](NC(=O)OC)c3ccccc3)c2)c1)c1ccccc1
selectivity ratio [1]: 5.56e+06 | EC50 (Hepatitis C virus [2]): 0.0044 nM | CC50 at 72 h [3]: 24200 nM | half-life at 10 mg/ml [4]: 75.9 min | microsomal CLint [5]: 9.9 µL/min/mg

C[C@]12CC[C@H]3[C@@H](CCC4=CC(=O)CC[C@@]43C)[C@@H]1CC[C@@H]2O [TESTOSTERONE]
half-life at 10 mg/ml [4]: 7.4 min

COC(=O)N[C@H](C(=O)N1CCC[C@H]1C(=O)Nc1ccc(C#Cc2ccc(NC(=O)[C@@H]3CCCN3C(=O)[C@@H](NC(=O)OC)C(C)C)cc2)cc1)C(C)C
selectivity ratio [1]: > 7660 | EC50 (Hepatitis C virus [2]): 0.131 nM | CC50 at 72 h [3]: > 1000 nM | EC50 (Hepatitis C virus [6]): 405 nM | EC50 (Hepatitis C virus [8]): 60.1 nM | EC50 (Hepatitis C virus [9]): 446 nM

COC(=O)N[C@H](C(=O)N1CCC[C@H]1C(=O)Nc1cccc(C#Cc2cccc(NC(=O)[C@@H]3CCCN3C(=O)[C@@H](NC(=O)OC)C(C)C)c2)c1)C(C)C
selectivity ratio [1]: > 3.25e+06 | EC50 (Hepatitis C virus [2]): 0.0308 nM | CC50 at 72 h [3]: > 100000 nM | EC50 (Hepatitis C virus [6]): 2150 nM | EC50 (Hepatitis C virus [8]): 233 nM | EC50 (Hepatitis C virus [9]): 279 nM

COC(=O)N[C@H](CC(C)C)C(=O)N1CCC[C@H]1C(=O)Nc1cccc(C#Cc2cccc(NC(=O)[C@@H]3CCCN3C(=O)[C@@H](CC(C)C)NC(=O)OC)c2)c1
selectivity ratio [1]: 560000 | EC50 (Hepatitis C virus [2]): 0.175 nM | CC50 at 72 h [3]: 97800 nM

COC(=O)N[C@H](C(=O)N1CCC[C@H]1C(=O)Nc1cccc(C#Cc2cccc(NC(=O)[C@@H]3CCCN3C(=O)[C@H](NC(=O)OC)c3ccccc3)c2)c1)C(C)C
EC50 (Hepatitis C virus [2]): 0.0033 nM | CC50 at 72 h [3]: 33600 nM | half-life at 10 mg/ml [4]: 18.8 min | microsomal CLint [5]: 36.4 µL/min/mg

COC(=O)N[C@@H](C(=O)N1CCC[C@H]1C(=O)Nc1cccc(C#Cc2cccc(NC(=O)[C@@H]3CCCN3C(=O)[C@H](NC(=O)OC)c3ccccc3)c2)c1)c1ccccc1
EC50 (Hepatitis C virus [2]): 0.00123 nM | CC50 at 72 h [3]: 43200 nM | EC50 (Hepatitis C virus [6]): 0.0559 nM | EC50 (Hepatitis C virus [7]): 0.0259 nM | EC50 (Hepatitis C virus [8]): 0.123 nM | EC50 (Hepatitis C virus [9]): 0.0163 nM | EC50 (Hepatitis C virus [10]): 0.00266 nM | EC50 (Hepatitis C virus [11]): 0.171 nM | Ratio EC50 [12]: 64.4 | half-life at 10 mg/ml [4]: 20 min | microsomal CLint [5]: 35.6 µL/min/mg | EC50 (Hepatitis C virus [13]): 0.00157 nM | Activity (Hepatitis C virus [14]): Active

COC(=O)N[C@@H](C(=O)N1CCC[C@H]1C(=O)Nc1cccc(C#Cc2ccc(-c3cnc([C@@H]4CCCN4C(=O)[C@H](NC(=O)OC)c4ccccc4)[nH]3)cc2)c1)c1ccccc1
EC50 (Hepatitis C virus [2]): 0.00114 nM | CC50 at 72 h [3]: 26200 nM | EC50 (Hepatitis C virus [6]): 0.229 nM | EC50 (Hepatitis C virus [8]): 0.134 nM | EC50 (Hepatitis C virus [9]): 0.0504 nM | half-life at 10 mg/ml [4]: > 120 min | microsomal CLint [5]: < 5.8 µL/min/mg

COC(=O)N[C@@H](C(=O)N1CCC[C@H]1C(=O)Nc1ccc(C#Cc2ccc(NC(=O)[C@@H]3CCCN3C(=O)[C@H](NC(=O)OC)c3ccccc3)cc2)cc1)c1ccccc1
EC50 (Hepatitis C virus [2]): 0.00259 nM | CC50 at 72 h [3]: 28200 nM | EC50 (Hepatitis C virus [6]): 0.316 nM | EC50 (Hepatitis C virus [8]): 0.147 nM | EC50 (Hepatitis C virus [9]): 0.194 nM | half-life at 10 mg/ml [4]: > 120 min | microsomal CLint [5]: < 5.8 µL/min/mg

COC(=O)N[C@@H](CC(C)C)C(=O)N1CCC[C@H]1C(=O)Nc1cccc(C#Cc2cccc(NC(=O)[C@@H]3CCCN3C(=O)[C@H](CC(C)C)NC(=O)OC)c2)c1
selectivity ratio [1]: 407000 | EC50 (Hepatitis C virus [2]): 0.133 nM | CC50 at 72 h [3]: 54400 nM

Source: ChEMBL document CHEMBL5136987, “Redesigning of the cap conformation and symmetry of the diphenylethyne core to yield highly potent pan-genotypic NS5A inhibitors with high potency and high resistance barrier” (Eur J Med Chem, 2022)
